{
  "source": "patent EP1043336A2",
  "about": "“Stereospecific antibodies for imidazolinone herbicides” (The Regents of the University of California, priority 1999, dated 2000)",
  "assay_type_in_all_cases": "binding, mouse",
  "key": {"[1]": {"system": "panel of monoclonal antibodies (MAbs)", "experiment": "Detection of imidazolinones by the panel of MAbs (EIA)", "description": "EIAs were done essentially as described by Karu et al (1994). For indirect EIAs, hapten-protein conjugates were adsorbed to wells of Immulon 2™ 96-well plates (Dynatech) in 0.1 mL of coating buffer (0.015 M Na2CO3 ― 0.035 M NaHCO3 ―0.003 M NaN3, pH 9.6). PBS-Tween containing 0.05% gelatin, 0.45 micron-filtered, was used as the diluent for antibodies and antibody-analyte mixtures, and as a blocking solution to prevent adventitious binding. The detecting antibody for the indirect EIAs was alkaline phosphatase conjugated goat anti-mouse IgG and IgM The substrate solution for color development was p-nitrophenyl phosphate 1 mg/mL, in 10% (w/v) diethanolamine-HCl, pH 9.8 ― 0.5 mM MgCl2 ― 3 mM NaN3. • 1. Indirect competition EIA. Indirect competition EIA (immobilized hapten conjugate) was used to evaluate the responses of mice, screen the MAbs, and quantify imidazolinone analytes. Optimal amounts of imidazolinone-BSA or -OVA conjugate for plate coating and dilutions for the hybridoma culture supernate or antiserum were determined by checkerboard assay. To perform the assay, wells were coated overnight at 4°C with a limiting amount of conjugate in 0.1 mL of coating buffer. Imidazolinone standards (0.5 to 5000 ppb) or unknowns were mixed with a limiting amount of antiserum or hybridoma culture fluid in the diluent and incubated overnight at 4°C in tightly sealed polypropylene tubes. The coated wells were washed and blocked with 0.2 mL of 0.05% gelatin in PBS-Tween for 30 minutes at room temperature. After another wash, aliquots (0.1 mL) of the antibody-analyte mixture were added to wells, and the remainder of the assay was performed as previously described (Karu et al., 1994). • 2. Direct competition EIA. Direct EIAs were performed by capturing the MAb on microwells and allowing the analyte to compete with a HRP-conjugated hapten for binding. Bound HRP-conjugate was then detected with a commercial HRP substrate. The sensitivity of this assay was enhanced by use of a commercial enzymatic signal amplification kit (GIBCO-BRL). Wells were coated with 200 or 500 ng of affinity-purified goat anti-mouse IgG or anti-mouse IgG Fc in the coating buffer at 4°C overnight. The next day, the wells were washed and blocked with PBS-Tween-gelatin for 30 minutes at room temperature, and then incubated for 1.5 hours at room temperature with hybridoma culture supernate. The plates were washed with PBS-Tween, and 0.1 mL of diluent containing the analyte and a limiting amount of biotinylated imidazolinone was added for 1.5 h at room temperature. The wells were washed three times with PBS-Tween, and Extravidin-alkaline phosphatase conjugate (Sigma) was then added for 30 minutes at room temperature. The plates were washed again with TBS (0.05 M Tris-HCl, pH 7.5,― 0.15 M NaCl) to remove remaining inorganic phosphate, which can inhibit the GIBCO-BRL EIA Amplification system. Substrate solution for the amplification step (0.05 mL) was added for 15 minutes at room temperature, followed by 0.05 mL of the enzymatic amplifying solution and chromogen. Color development at 492 nm was recorded. • 3. EIA Data Analysis. Color development was monitored on a Multiskan EIA reader (Flow Laboratories) interfaced with a Macintosh computer, and the rates of the reaction were calculated by linear regression. Competition EIA dose- response curves were fitted with a 4-parameter logistic equation (Karu et al., 1994)."}, "MAb 3A2 [2]": {"biological_target": "MAb 3A2", "experiment": "BIAcore surface plasmon resonance, equilibrium dissociation constant", "conditions": "racemic hapten conjugate", "description": "(§1) 1. Binding Kinetics. The equilibrium dissociation constants (KD) for MAbs 3A2 and 3A5 were measured by kinetic exclusion fluoroimmunoassay (KinExA) (Blake, D. A., et al. 1997. Characterization of a metal-specific monoclonal antibody. In: Immunochemical Technology for Environmental Applications (ACS Symposium Series 657), eds. DS Aga, EM Thurmann, pp. 49-60. Washington, D.C.: American Chemical Society.), and also in a Pharmacia BIAcore surface plasmon resonance instrument (Malmborg, A.-C. and Borrebaeck, C. A. K. 1995. BIAcore as a tool in antibody engineering. J. Immunol. Methods 183: 7-13.). Since the hapten conjugates used in these rate studies were racemic mixtures, the dissociation constants obtained can only be a median rate for the different chiral isomers.\n(§2) The KinExA directly measures free antibody in solution equilibrium by trapping it on beads coated with hapten conjugate. […] 2. […] 4."}, "[3]": {"biological_target": "MAb 3A5 (VH and VL N-termini SEQ.ID NOS. 1 and 2)", "experiment": "BIAcore surface plasmon resonance, equilibrium dissociation constant", "conditions": "racemic hapten conjugate", "description": "as §1, §2"}, "MAb 3A2 [4]": {"biological_target": "MAb 3A2", "experiment": "Kinetic exclusion fluoroimmunoassay (KinExA), equilibrium dissociation constant", "conditions": "hapten conjugate 16-BSA, racemic hapten conjugate", "description": "as §1, §2"}, "[5]": {"biological_target": "MAb 3A5 (VH and VL N-termini SEQ.ID NOS. 1 and 2)", "experiment": "Kinetic exclusion fluoroimmunoassay (KinExA), equilibrium dissociation constant", "conditions": "hapten conjugate 16-BSA, racemic hapten conjugate", "description": "as §1, §2"}},
  "data": [
    {"compound": "CCc1cnc(C2=NC(C)(C(C)C)C(=O)N2)c(C(=O)O)c1", "note": "(stereo not shown) [imazethapyr, 5-ethyl-2-(4-isopropyl-4-methyl-5-oxo-2-imidazolin-2-yl) nicotinic acid]", "values": [
      {"measurement": "detection range", "setting": "[1]", "value": "3 to 30", "unit": "ng/mL"},
      {"measurement": "Kd", "setting": "MAb 3A2 [2]; hapten conjugate 16-OA", "value": 24.7, "unit": "nM"},
      {"measurement": "Kd", "setting": "MAb 3A2 [2]; hapten conjugate 17-OA", "value": 51.6, "unit": "nM"},
      {"measurement": "Kd", "setting": "[3]; hapten conjugate 16-OA", "value": 9.6, "unit": "nM"},
      {"measurement": "Kd", "setting": "[3]; hapten conjugate 17-OA", "value": 10.8, "unit": "nM"},
      {"measurement": "Kd", "setting": "MAb 3A2 [4]", "value": 11.4, "unit": "nM"},
      {"measurement": "Kd", "setting": "[5]", "value": 73, "unit": "nM"}
    ]}
  ]
}
